The test has as its system bed bugs. In words: Choice test with unconcealed bed bugs on filter paper discs, test compound in acetone vs. acetone only (percent repellency). The class given is in vivo. The following applies: for percent repellency at 2 hour: chemical at 0.2%, 2 hour post-treatment (Table 2). The procedure: This test was undertaken employing unconcealed bugs. Two semicircular discs of filter paper, 9 cm in radius treated with 1 ml of solution to wet the entire surface, one treated with an acetone solution of the test compound and one only acetone treated were placed on the lid of a Petri dish. Five replicates of ten (10) bed bugs were release into the center of the lids of the Petri dish with a choice of the test compound treated or only acetone treated substrate. The distribution of bed bugs was recorded at ½, […], 2, 6 and 24 hours post-treatment. Paired t-tests were conducted for each treatment to ascertain whether or not there was a statistically significant difference in the number of bed bugs on the treated vs. untreated discs.

Read-outs that look alike come from different tables or passages of the source.

In the case of `CC(=O)C(C)=CC1C(C)=CCCC1(C)C` (stereo not drawn) [Alpha Isomethylionone, 3-methyl-4-(2,6,6-trimethyl-2-cyclohexen-1-yl)-3-buten-2-one], the pest or weed control at 0.5 % came out at 100% (chemical at 0.5% in acetone on filter paper, 0.5 hr post-treatment, read-out: percent repellency at 0.5 hr); 100% (chemical at 0.5% in acetone on filter paper, 1 hr post-treatment, read-out: percent repellency at 1 hr); 100% (chemical at 0.5% in acetone on filter paper, 6 hr post-treatment, read-out: percent repellency at 6 hr); 84% (chemical at 0.5% in acetone on filter paper, 24 hr post-treatment, read-out: percent repellency at 24 hr); 96% (chemical at 0.5%, average of 0.5, 1, 6 and 24 hr, read-out: percent repellency, Average).
Consider `CCCCCC1C(=O)CCC1CC(=O)OCC` (stereo not shown) [Ethyl dihydrojasmonate, ethyl 2-(3-oxo-2-pentylcyclopentyl)acetate], for which the “percent repellency at 2 hour” value was determined as 90%.
On to `CCCCCC1C(=O)CCC1CC(=O)OCCC` (stereo not shown) [Propyl dihydrojasmonate, propyl 2-(3-oxo-2-pentylcyclopentyl)acetate], for which the “percent repellency at 2 hour” value was 78%.

Source of the values: US8551510B2, “Bed bug control and repellency” (Bedoukian Research, Inc., priority 2009, dated 2013).
